From patent US11219221B2 (FarmHannong Co., Ltd., priority 2017, dated 2022)

Legend:
Test in all cases: PPO enzyme inhibition (IC50), MBP-fused PPO
Format in all cases: biochemical
Details in all cases: 50 μM protoporphyrinogen IX, pH 8.0, room temperature, 30 min
[1] = target: Spirulina subsalsa PPO CyPPO16 (SEQ ID NO: 1) variant A162L (MBP fusion)
Method: (§1) Thus, PPO proteins of wild type and variants were expressed as fused to MBP and were used for experiments.
(§2) The following process for purification of PPO protein was performed in a 4° C. cold room. Amylose resin (NEB) was packed to 1.5×15 cm column (Bio-Rad, Econo Columns 1.5×15 cm, glass chromatography column, max. vol), and the obtained protein extracts were loaded to the column at a flow rate of 0.2 ml/min. The column was washed with 3 column volumes of buffer and the presence of protein in the washing solution was examined. When the protein was no longer detected, the washing procedure was terminated. Then, the MBP-PPO protein was eluted with approximately 2 column volumes of buffer containing 20 mM maltose. The protein concentration of each eluent was determined and the elution was stopped when the protein was no longer detected. Ten microliter of each fraction was investigated for protein quantification and SDS-PAGE analysis. The highly pure fractions of PPO protein variants were used for the enzyme assay.
(§3) Since protoporphyrinogen IX, a substrate of PPO protein, was not commercially available, it was chemically synthesized in the laboratory. Overall process was performed in dark under nitrogen stream. […] of protoporphyrin IX was dissolved in 20 ml of 20% (v/v) EtOH, and stirred under dark condition for 30 minutes. The obtained protoporphyrin IX solution was put into a 15 ml screw tube in an amount of 800 μl, and flushed with nitrogen gas for 5 minutes. To this, 1.5 g of sodium amalgam was added and vigorously shaken for 2 minutes. The lid was opened to exhaust hydrogen gas in the tube. Thereafter, the lid was closed and incubated for 3 minutes. The protoporphyrinogen IX solution was filtered using syringe and cellulose membrane filter. […] To determine the enzyme activity of PPO protein, a reaction mixture was prepared with the following composition (based on 10 ml): 50 mM Tris-Cl (pH 8.0); 50 mM NaCl; 0.04% (v/v) Tween 20; 40 mM glucose (0.072 g); 5 units glucose oxidase (16.6 mg); and 10 units catalase (1 μl).
(§4) Hundred and eighty microliters of a reaction mixture containing the purified PPO protein were placed in 96 well plates and 20 μl of […] were added. […] The reaction proceeded at room temperature for 30 min and the fluorescence of protoporphyrin IX was measured using Microplate reader (Sense, Hidex) (excitation: 405 nm; emission: 633 nm). […] To this, 2.7 N HCl was added, and the absorbance at 408 nm was measured. A standard curve was generated using standard protoporphyrin IX, and PPO activity was measured by calibration of protoporphyrin IX using the standard curve of protoporphyrin IX.

[2] = target: Spirulina subsalsa PPO CyPPO16 (SEQ ID NO: 1) variant V160C (MBP fusion)
Method: as §1, §2, §3, §4

[3] = target: Spirulina subsalsa PPO CyPPO16 (SEQ ID NO: 1) variant V305M (MBP fusion)
Method: as §1, §2, §3, §4

[4] = target: Spirulina subsalsa PPO CyPPO16 (SEQ ID NO: 1) variant L327T (MBP fusion)
Method: as §1, §2, §3, §4

[5] = target: Spirulina subsalsa PPO CyPPO16, wild type, SEQ ID NO: 1 (MBP fusion)
Method: as §1, §2, §3, §4

[6] = target: Spirulina subsalsa PPO CyPPO16 (SEQ ID NO: 1) variant R85A (MBP fusion)
Method: as §1, §2, §3, §4

| Structure (SMILES) | IC50 [1] | IC50 [2] | IC50 [3] | IC50 [4] | IC50 [5] | IC50 [6] |
| --- | --- | --- | --- | --- | --- | --- |
| C#CCN1C(=O)COc2cc(F)c(N3C(=O)C4=C(CCCC4)C3=O)cc21 [flumioxazin] | 578 nM | 57 nM | 38 nM | 780 nM | 14 nM | 59 nM |
| Cc1nn(-c2cc(NS(C)(=O)=O)c(Cl)cc2Cl)c(=O)n1C(F)F [sulfentrazone] | 1100 nM | 584 nM | 305 nM | 1830 nM | 245 nM | 1040 nM |
